The results in this text go back to US8377914B2, “Method of inducing negative chemotaxis” (Celtaxsys, Inc., priority 2008, dated 2013).

The test system of this test is neutrophils. Nature of the test: Chemorepulsion assay of neutrophils in Neuroprobe ChemoTx plates, migrated cells quantified with Cell Titer Glo. The test is classed as cell-based, human. The note with it: for Activity (chemorepulsive activity): screened at 3.7, 11.1, 33.3 and 100 uM. As to the method: The chemorepulsive activity of idebenone, benazepril, rolipram, moxonidine, lamivudine, calcitriol, calcipotriol, loxoprofen, terbinafine, Synephrine and 6-aminoindazole was determined as follows: • 1. Prior to beginning the assay, the following were prepared: • a. 0.5% Fetal Calf Serum (FCS) in Iscove's Modified Dulbecco's Medium (IMDM) (Assay Medium) (Both from ATCC). • b. Migratory cells at a concentration of 2×10^7 cells/ml in Assay Medium. • c. The indicated dilutions of the ligand of interest in Assay Medium were prepared. • 2. The assay plates are Neuroprobe ChemoTx plates, part number 206-3 (3 um pore size) for neutrophils. • 3. The plates were removed from packaging, leaving the membrane behind. • 4. 31 μl of the following solutions were pipetted into each well: • a. For media controls and for chemorepulsion samples, Assay Medium was used. • b. For chemoattraction samples, appropriate dilution of ligand was used. • 5. A sterile needle was used to pop any and all small bubbles present in each well. • 6. The membrane was carefully placed onto the plate, starting at one side and then slowly lowering the other edge onto the plate. • 7. 29 μl of the following were pipetted onto the top of each circle: • a. For media controls and chemoattraction (CA) samples, use Assay Medium. • b. For chemorepulsion (CR) samples, use the appropriate dilution of ligand. • 8. 2 μl of cells (40,000 cells) were added to each bubble of liquid from step 7. • 9. A needle was used to pop all air bubbles. • 10. The plate was covered with the supplied lid and incubated for the desired time at 37° C. in 5% CO2. Unless otherwise indicated, the incubation time was 1 hour for neutrophils and 3 hours for T cells. For monocytes and B cells, the incubation time was 2 hours. • 11. After the desired assay time, the liquid was removed from the top of the plate using a Kimwipe. At this point, the plate was stored (with the membrane in place) for up to 2 hours at 4° C. • 12. The membrane was carefully removed from the top of the plate and discard. The plate was examined under a microscope to look for ligand crystallization, contamination and overall migration. • 13. White read plates were preloaded with 25 ul PBS. • 14. Using a multichannel pipettor, 5 ul of Cell Titer Glo (Promega # G7572) was added to each well. • 15. Using a multichannel pipettor set at 30 ul, lysed cell solution was transferred to white read plates pre-loaded with PBS. • 16. The plate was read using the BioTek Synergy4 plate reader in order to quantify the number of migrated cells.
The calcitriol analogs listed below were screened at concentrations of 3.7, 11.1, 33.3 and 100 uM as described above for chemorepulsive activity (FIGS. 11-13).
Background: Cellular ATP, detected with luciferase, serves as a proxy for viable cell number.

Setting [1] is: Homo sapiens, Neutrophil, neutrophils, 0.1 uM, replicates, read-out: fold induction of chemorepulsion over media.
[2] abbreviates: Homo sapiens, Neutrophil, read-out: fold induction of chemorepulsion over media.

Structures are written as SMILES. Where two headings read alike, the source gives them in different places.

For `C=C1/C(=C\C=C2/CCC[C@]3(C)[C@@H]([C@H](C)CCCC(C)C)CC[C@@H]23)C[C@@H](O)C[C@@H]1O` [1α-hydroxycholecalciferol], for the setting “neutrophils”, the “Activity (chemorepulsive activity)” value is “No activity”.
`C=C1/C(=C\C=C2/CCC[C@]3(C)[C@@H]([C@H](C)/C=C/[C@H](C)C(C)C)CC[C@@H]23)C[C@@H](O)C[C@@H]1O` [1α-hydroxyvitamin D2]: for the setting “neutrophils”, the “Activity (chemorepulsive activity)” value is listed as “No activity”.
On to `Nc1ccc2c[nH]nc2c1` [6-aminoindazole], for which the fold induction at 0.1 µM under setting [1] was more than 3.
For `C=C1CC[C@H](O)C/C1=C/C=C1\CCC[C@]2(C)[C@@H]([C@H](C)CCCC(C)(C)O)CC[C@@H]12` [Calcefidiol], the “Activity (chemorepulsive activity)” value (neutrophils) is on record as “No activity”.
Take `C=C1/C(=C\C=C2/CCC[C@]3(C)[C@@H]([C@H](C)/C=C/[C@@H](O)C4CC4)CC[C@@H]23)C[C@@H](O)C[C@@H]1O` [Calcipotriene]: the “Activity (chemorepulsive activity)” value (neutrophils) is on record as “Chemorepellant”.
For `C=C1CC[C@H](O)C/C1=C/C=C1\CCC[C@]2(C)[C@@H]([C@H](C)/C=C/[C@H](C)C(C)C)CC[C@@H]12` [Vitamin D2, ergocalciferol], under “neutrophils”, the “Activity (chemorepulsive activity)” value is recorded as “Chemorepellant”.
Same read-out and setting: then `C=C1CC[C@H](O)C/C1=C/C=C1\CCC[C@]2(C)[C@@H]([C@H](C)CCCC(C)C)CC[C@@H]12` [Vitamin D3, cholecalciferol], with “Chemorepellant”.
Turning to `CCOC(=O)[C@H](CCc1ccccc1)N[C@H]1CCc2ccccc2N(CC(=O)O)C1=O` [benazepril], the fold induction at 0.92 µM under setting [2] is approximately 2.
With `C=C1/C(=C\C=C2/CCCC3(C)C2CCC3[C@@H](C)CCCC(C)(C)O)C[C@@H](O)CC1O` (stereo partly drawn) [calcitriol, 1,25-dihydroxyvitamin D], the fold induction at 100 µM (Homo sapiens, Neutrophil, neutrophils, 100 uM, read-out: fold induction of chemorepulsion over media) was more than 3.
In the case of `CC(C(=O)O)c1ccc(CC2CCCC2=O)cc1` (stereo not drawn) [loxoprofen], the fold induction at 0.091 µM under setting [2] is more than 2.
As for `COc1nc(C)nc(Cl)c1NC1=NCCN1` [moxonidine], under “Homo sapiens, Neutrophil, neutrophils, 0.092 uM, replicates, read-out: fold induction of chemorepulsion over media”, the fold induction at 0.092 µM is approximately 2. In addition, under “Homo sapiens, Neutrophil, neutrophils, 9.9 uM, replicates, read-out: fold induction of chemorepulsion over media”, the fold induction at 9.9 µM is more than 2.
As to `COc1ccc(C2CNC(=O)C2)cc1OC1CCCC1` (stereo not drawn) [rolipram, 4-(3-cyclopentyloxy-4-methoxy-phenyl)pyrrolidin-2-one], the fold induction at 0.1 µM under setting [1] turned out to be 2.
Regarding `CNCC(O)c1ccc(O)cc1` (stereo not drawn) [synephrine], the fold induction at 0.1 µM under setting [2] was more than 2.
`CN(C/C=C/C#CC(C)(C)C)Cc1cccc2ccccc12` [terbinafine, N,6,6-trimethyl-N-(naphthalen-1-ylmethyl)hept-2-en-4-yn-1-amine]: the fold induction at 89 µM (Homo sapiens, Neutrophil, neutrophils, 89 uM, read-out: fold induction of chemorepulsion over media) was more than 2.5.
